This is an account of results in patent US20120083522A1, “MODULATION OF INFLAMMATORY RESPONSES BY FACTOR XI” (Isis Pharmaceuitcals, inc., priority 2009, published 2012).

e = 2'-O-(2-methoxyethyl) (MOE); d = 2'-deoxy (DNA)

Details of series [1]: species or system Sprague-Dawley rats. Conditions: rat, in vivo, sc, 20 mg/kg. As to the method:
The concentration of the full-length oligonucleotide as well as the total oligonucleotide concentration (including the degraded form) was measured. The method used is a modification of previously published methods (Leeds et al., 1996; Geary et al., 1999) which consist of a phenol-chloroform (liquid-liquid) extraction followed by a solid phase extraction. An internal standard (ISIS 355868, a 27-mer 2′-O-methoxyethyl modified phosphorothioate oligonucleotide, […], designated herein as SEQ ID NO: 270) was added prior to extraction. […] The results are presented in Tables 98 and 99, expressed as μg/g liver or kidney tissue.

Series [2] relates to human Factor XI mRNA. The series can be described thus: Dose-dependent antisense inhibition in HepG2 cells, lipofectin (Example 2). The class given is cell-based. Conditions: approximately 16 hours. As to the method:
Cells were plated at a density of 10,000 cells per well and transfected using lipofectin reagent with 9.375 nM, 18.75 nM, 37.5 nM, 75 nM, and 150 nM concentrations of antisense oligonucleotide, as specified in Table 3. After a treatment period of approximately 16 hours, RNA was isolated from the cells and Factor XI mRNA levels were measured by quantitative real-time PCR. Human Factor XI primer probe set RTS 2966 (forward sequence: […], incorporated herein as SEQ ID NO: 3; reverse sequence: […], incorporated herein as SEQ ID NO: 4; probe sequence: TTGTCTACTGAAGCACACCCAAACAGGGAX, wherein X is the fluorophore, incorporated herein as SEQ ID NO: 5) was used to measure mRNA levels. Factor XI mRNA levels were adjusted according to total RNA content, as measured by RIBOGREEN®. Results are presented as percent inhibition of Factor XI, relative to untreated control cells.

Series [3] relates to human Factor XI mRNA. Description: Antisense inhibition in HepG2 cells by microwalk gapmers, 8,000 nM, electroporation (Example 14). The series is classed as cell-based. Conditions: HepG2 cells, 8,000 nM. Put shortly:
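HepG2 cells electroporated with 8,000 nM 2′-MOE phosphorothioate gapmer (5-10-5, 5-8-5 or 6-8-6). Factor XI mRNA measured after ~24 h by qRT-PCR, normalised to RIBOGREEN total RNA. Reported as percent inhibition versus untreated cells.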

The subject of series [4] is human Factor XI mRNA. The series can be described thus: Antisense inhibition in HepG2 cells by microwalk gapmers, 75 nM, lipofectin (Example 3). The series is classed as cell-based. The note with it: HepG2 cells, 75 nM, oligonucleotides targeted to nucleobases 1275 to 1318 of SEQ ID NO: 1. An outline of the steps: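 HepG2 cells (10,000 per well) were transfected with 75 nM gapmer using lipofectin and treated for about 24 h. Factor XI mRNA was quantified by real-time PCR, normalized to RiboGreen total RNA and expressed as percent inhibition versus untreated controls.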

Series [5] has as its system human Factor XI mRNA. The series can be described thus: Dose-dependent inhibition in HepG2 cells, lipofectin (Example 4). The series is classed as cell-based. The note with it: 16 hours. An outline of the steps:
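HepG2 cells at 10,000 per well were lipofectin-transfected with 9.375, 18.75, 37.5 or 75 nM antisense oligonucleotide for about 16 h. Factor XI mRNA was quantified by real-time PCR (primer probe set RTS 2966) and normalised to RIBOGREEN total RNA. Values are percent inhibition versus untreated cells.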

Series [6] relates to human Factor XI mRNA. The series can be described thus: Dose-dependent inhibition and IC50 in HepG2 cells, electroporation (Example 15). The series is classed as cell-based. As to the method: Cells were plated at a density of 20,000 cells per well and transfected using electroporation with 123.46 nM, 370.37 nM, 1,111.11 nM, 3,333.33 nM and 10,000 nM concentrations of antisense oligonucleotide, as specified in Table 52. After a treatment period of approximately 16 hours, RNA was isolated from the cells and Factor XI mRNA levels were measured by quantitative real-time PCR. Human Factor XI primer probe set RTS 2966 was used to measure mRNA levels. Factor XI mRNA levels were adjusted according to total RNA content, as measured by RIBOGREEN. Results are presented as percent inhibition of Factor XI, relative to untreated control cells.

The subject of series [7] is human Factor XI mRNA. The series can be described thus: Dose-dependent inhibition in HepG2 cells, electroporation (Example 4). Conditions: 16 hours. The series is classed as cell-based. Put shortly: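 HepG2 cells electroporated with 0.7, 2.2, 6.7 or 20 μM antisense gapmer and harvested after ~16 h. Factor XI mRNA quantified by qRT-PCR (primer probe set RTS 2966), normalised to total RNA (RIBOGREEN). Reported as percent inhibition versus untreated control cells.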

Regarding “412223 (antisense ACAGTTTCTGGCAGGCCTCG; sugars from the 5' end e5 d10 e5, backbone and methylation of C not given here) [compound 412223]”, in series [1], the “Half-life in the liver and kidney” value came to 22 days. Further, the “percent inhibition of Factor XI” value is given as 33% with human Factor XI mRNA [2] (9.375 nM); 48% in the series with human Factor XI mRNA [2] (18.75 nM); 62% in the series with human Factor XI mRNA [2] (37.5 nM); 76% in the series on human Factor XI mRNA [2] (75 nM); 81% in the series with human Factor XI mRNA [2] (150 nM). Besides, the “Percent inhibition of human Factor XI mRNA levels” value in the series with human Factor XI mRNA [3] is recorded as 62%. Also, the “% inhibition of human Factor XI mRNA levels” value (shortened to “% inhibition”) with human Factor XI mRNA [4] came out at 85%.

As for “412224 (antisense GCATTGGTGCACAGTTTCTG; sugars from the 5' end e5 d10 e5, backbone and methylation of C not given here) [compound 412224]”, the “Half-life in the liver and kidney” value in series [1] turned out to be 17 days. The “percent inhibition of Factor XI” value with human Factor XI mRNA [2] (9.375 nM) is reported as 24%; in the series on human Factor XI mRNA [2] (18.75 nM), 45%; in the series with human Factor XI mRNA [2] (37.5 nM), 57%; with human Factor XI mRNA [2] (75 nM), 70%; in the series on human Factor XI mRNA [2] (150 nM), 81%. Besides, the “Percent inhibition of human Factor XI mRNA levels” value in the series on human Factor XI mRNA [3] amounted to 84%. Further, the “% inhibition” value with human Factor XI mRNA [4] amounted to 93%.

As for “412225 (antisense GCAGCGGACGGCATTGGTGC; sugars from the 5' end e5 d10 e5, backbone and methylation of C not given here) [compound 412225]”, the “Half-life in the liver and kidney” value in series [1] worked out at 21 days. Besides, the “percent inhibition of Factor XI” value in the series with human Factor XI mRNA [2] (9.375 nM) came to 32%; with human Factor XI mRNA [2] (18.75 nM), 42%; in the series on human Factor XI mRNA [2] (37.5 nM) it was 65%; in the series with human Factor XI mRNA [2] (75 nM), 78%; in the series with human Factor XI mRNA [2] (150 nM), 73%. The “Percent inhibition of human Factor XI mRNA levels” value in the series on human Factor XI mRNA [3] came out at 86%. The “% inhibition” value in the series on human Factor XI mRNA [4] amounted to 86%.

Take “413481 (antisense GGTGCACAGTTTCTGGCAGG; sugars from the 5' end e5 d10 e5, backbone and methylation of C not given here) [compound 413481]”: the “Half-life in the liver and kidney” value in series [1] stood at 21 days. For the same substance, the “percent inhibition of Factor XI” value in the series on human Factor XI mRNA [2] (9.375 nM) was determined as 22%; with human Factor XI mRNA [2] (18.75 nM) it was 38%; in the series on human Factor XI mRNA [2] (37.5 nM), 56%; with human Factor XI mRNA [2] (75 nM), 67%; in the series on human Factor XI mRNA [2] (150 nM), 83%. In addition, the “Percent inhibition of human Factor XI mRNA levels” value in the series on human Factor XI mRNA [3] is reported as 82%.

With “413482 (antisense GGACGGCATTGGTGCACAGT; sugars from the 5' end e5 d10 e5, backbone and methylation of C not given here) [compound 413482]”, the “Half-life in the liver and kidney” value in series [1] is reported as 20 days. Also, the “percent inhibition of Factor XI” value in the series on human Factor XI mRNA [2] (9.375 nM) is listed as 26%; in the series with human Factor XI mRNA [2] (18.75 nM), 39%; with human Factor XI mRNA [2] (37.5 nM), 59%; in the series with human Factor XI mRNA [2] (75 nM), 74%; in the series with human Factor XI mRNA [2] (150 nM) it was 82%. In addition, the “Percent inhibition of human Factor XI mRNA levels” value in the series with human Factor XI mRNA [3] stood at 88%. In addition, the “% inhibition” value in the series with human Factor XI mRNA [4] was determined as 89%.

For “416856 (antisense GGCATTGGTGCACAGTTTCT; 5-10-5 gapmer, wing sugar chemistry not given here, further chemistry not given here) [compound 416856]”, the “percent inhibition of Factor XI mRNA, relative to untreated control cells” value is given as 21% in the series with human Factor XI mRNA [5] (9.375 nM); 45% in the series on human Factor XI mRNA [5] (18.75 nM); 58% with human Factor XI mRNA [5] (37.5 nM); 74% in the series with human Factor XI mRNA [5] (75 nM); 0% in the series on human Factor XI mRNA [7] (0.7 μM); 29% in the series with human Factor XI mRNA [7] (2.2 μM). Further, the “percent inhibition of Factor XI mRNA, relative to untreated control cells” value with human Factor XI mRNA [7] (6.7 μM) was 47%; in the series with human Factor XI mRNA [7] (20 μM), 93%. Moreover, the “percent inhibition of Factor XI mRNA” value in the series on human Factor XI mRNA [6] (electroporation, 123.47 nM) is 12%; in the series with human Factor XI mRNA [6] (electroporation, 370.37 nM) it was 23%; in the series on human Factor XI mRNA [6] (electroporation, 1,111.11 nM), 35%; in the series on human Factor XI mRNA [6] (electroporation, 3,333.33 nM), 59%; in the series with human Factor XI mRNA [6] (electroporation, 10,000.0 nM) it was 83%. For the same substance, in series [1], the “Half-life in the liver and kidney” value is given as 19 days. The “Percent inhibition of human Factor XI mRNA levels” value with human Factor XI mRNA [3] worked out at 84%. Besides, the “% inhibition” value in the series with human Factor XI mRNA [4] stood at 95%.
